These molecules were tested against Proto-oncogene tyrosine-protein kinase Src (Mus musculus, UniProt P05480) (assay: Kinase Assay).
Proto-oncogene tyrosine-protein kinase Src, sequence (P05480 2-535 limits assumed): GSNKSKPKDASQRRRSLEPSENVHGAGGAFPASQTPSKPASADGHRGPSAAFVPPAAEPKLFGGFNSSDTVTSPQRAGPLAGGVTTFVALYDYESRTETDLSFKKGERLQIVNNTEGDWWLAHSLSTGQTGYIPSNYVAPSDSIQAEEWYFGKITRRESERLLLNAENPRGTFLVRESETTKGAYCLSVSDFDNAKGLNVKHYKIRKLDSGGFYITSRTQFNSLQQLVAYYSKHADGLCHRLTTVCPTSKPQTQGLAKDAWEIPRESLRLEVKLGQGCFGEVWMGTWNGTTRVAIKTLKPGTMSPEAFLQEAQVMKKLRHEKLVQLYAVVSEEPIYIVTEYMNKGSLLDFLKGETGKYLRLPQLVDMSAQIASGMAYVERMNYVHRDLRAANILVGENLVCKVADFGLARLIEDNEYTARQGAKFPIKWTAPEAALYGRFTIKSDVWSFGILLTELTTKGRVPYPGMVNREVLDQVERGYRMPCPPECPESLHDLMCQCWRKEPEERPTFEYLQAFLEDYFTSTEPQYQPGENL
Protocol: 2,6,9-Trisubstituted purines were evaluated for their src kinase inhibitory activities using an ELISA assay.
Molecule `CCn1cnc2c(Nc3ccc(P(=O)(O)CP(=O)(O)O)cc3)nc(C3CCNCC3)nc21` [2,6,9-Trisubstituted Purine, 4] has an IC50 of 665 nM.
Work on `CCn1cnc2c(Nc3ccc(P(=O)(O)CP(=O)(O)O)cc3)nc(CC3CCNCC3)nc21` [2,6,9-Trisubstituted Purine, 5] yielded an IC50 of 2310 nM.
`CCn1cnc2c(Nc3ccc(P(=O)(O)CP(=O)(O)O)cc3)nc(CCC3CCNCC3)nc21` [2,6,9-Trisubstituted Purine, 6] gave an IC50 of 1010 nM.
`CCn1cnc2c(Nc3ccc(P(=O)(O)CP(=O)(O)O)cc3)nc(CC3CCCNC3)nc21` (stereo not drawn) [2,6,9-Trisubstituted Purine, 7] gave an IC50 of 2300 nM.
Work on `CCn1cnc2c(Nc3ccc(P(=O)(O)CP(=O)(O)O)cc3)nc(C[C@H]3CC[C@H](N)CC3)nc21` [2,6,9-Trisubstituted Purine, 9] yielded an IC50 of 205 nM.
In the case of `CCn1cnc2c(Nc3ccc(P(=O)(O)CP(=O)(O)O)cc3)nc(C[C@H]3CC[C@@H](N)CC3)nc21` [2,6,9-Trisubstituted Purine, 10], the IC50 is reported as 101 nM.
Molecule `CCn1cnc2c(Nc3ccc(P(=O)(O)CP(=O)(O)O)cc3)nc(CCCCN)nc21` [2,6,9-Trisubstituted Purine, 11] has an IC50 of 2110 nM.
`CCn1cnc2c(Nc3ccccc3)nc([C@H]3CC[C@H](N)CC3)nc21` [2,6,9-Trisubstituted Purine, AP23517] was tested, and the IC50 was 73 nM.

— BindingDB's records for doi:10.1111/j.1747-0285.2007.00615.x (Ariad Pharmaceuticals, 2008)
